{
  "source": "patent US20260335397A1",
  "about": "“TREATMENT OF GEOGRAPHIC ATROPHY” (Apellis Pharmaceuticals, Inc., priority 2022, published 2026)",
  "format_in_all_cases": "in vivo, human",
  "key": {"[1]": {"test_system": "geographic atrophy (GA) secondary to age-related macular degeneration (AMD)", "assay": "Post-hoc analysis of time to foveal light insensitivity, 4 central points of MAIA grid, OAKS study", "method": "This Example describes a post-hoc analysis of results from the OAKS study described in Example 1 that was performed in order to assess the effect of pegcetacoplan monthly (PM) or every other month (PEOM) vs sham treatment in delaying occurrence of foveal insensitivity measured by the 4 most centrally located stimulus points of the MAcular Integrity Assessment (MAIA) grid. Absolute scotomatous points of −1 dB were considered present when a reaction was not evoked by the brightest possible light stimulus.\nLight insensitivity was defined as absence of response to −1 dB at the stimulus point. For the time-to-event analysis, a foveal light insensitivity event was defined as the first light insensitivity (−1 dB) occurring at all 4 central stimuli. Events were measured at the exact date of a patient visit and depicted via Kaplan-Meier plots. A Cox proportional hazards model was applied factoring treatment, choroidal neovascularisation in the fellow eye, baseline GA lesion area, and baseline number of central 4 scotomatous points (categorical). Hazard ratios (HRs) of PM and PEOM were estimated."}, "[2]": {"test_system": "geographic atrophy (GA) secondary to age-related macular degeneration (AMD)", "assay": "Post-hoc SD-OCT analysis of PR and RPE loss, OAKS and DERBY studies", "conditions": "12 months; for RPE loss, difference EM vs EOM / PR loss, difference EM vs EOM: monthly vs every other month; for PR loss, difference EM vs. Sham Pooled / RPE loss, difference EM vs. Sham Pooled: monthly", "description": "LS means estimated from MMRM analysis. The mITT population was used for the analysis, defined as all randomized patients who received at least 1 injection of pegcetacoplan or sham and had baseline and at least one post-baseline value of GA lesion area in the study eye. FOV=field of view; LS=least square; M=month; mITT=modified intent-to-treat; MMRM=mixed-effects model for repeated measures; PEOM=pegcetacoplan every other month; PM=pegcetacoplan monthly; PR=photoreceptor; RPE=retinal pigment epithelium; SE=standard error.\nLS means estimated from MMRM analysis. The mITT population was used for the analysis, defined as all randomized patients who received at least 1 injection of pegcetacoplan or sham and had baseline and at least one post-baseline value of GA lesion area in the study eye. FOV-field of view; LS=least square; M=month; mITT=modified intent-to-treat; MMRM=mixed-effects model for repeated measures; PEOM=pegcetacoplan every other month; PM=pegcetacoplan monthly; PR=photoreceptor; RPE=retinal pigment epithelium; SE=standard error.\nSpectral-domain optical coherence tomography (OCT) allows for cross sectional visualization of the neurosensory retina, including the photoreceptor (PR) layer, as well as the retinal pigment epithelium (RPE) and other retinal structures. […] A post-hoc analysis that assessed the ability of pegcetacoplan treatment to reduce PR and RPE loss in patients with GA was performed using SD-OCT images acquired from a subgroup of patients in the OAKS and DERBY studies, namely those for whom Spectralis SD-OCT images were available. Automated, deep learning based segmentation of RPE loss and PR thickness on SD-OCT volumes acquired at baseline and months 2, 4, 6, 8, 10, and 12 was performed according to previously published methods. The difference in the change from baseline of RPE loss area and of PR loss area (determined based on PR thickness measurements) was compared among the monthly, every other month, and pooled sham treatment arms using LS Mean MMRM modeling. […] The magnitude of the treatment effects at 12 months, as determined using LS mean MMRM modeling, are summarized below."}, "[3]": {"test_system": "geographic atrophy (GA) secondary to age-related macular degeneration (AMD)", "assay": "Post-hoc analysis of BCVA and VFQ-25 by lesion distance from foveal center, OAKS and DERBY", "conditions": "lesions ≥250 μm from foveal center, 24 months", "method": "This Example describes a post-hoc analysis of results from the OAKS and DERBY studies described in Example 1. Functional data by lesion distance from foveal center were assessed over 24 months.\nIn the patient subgroup having lesions ≥250 μm away from the foveal center, pegcetacoplan slowed vision loss and improved quality of life in patients. […] This subgroup included patients in the mITT sample with non-missing baseline measurements of RPE central 3 mm occupancy (C30) in regions 1-5 and lesion distance from fovea center. Mean changes were calculated among patients with BCVA measurements at each timepoint and thus samples varied across outcomes shown with no imputation for missing data. Adjusted differences from bootstrapped inverse probability weighted regressions controlling for baseline C30 in regions 1-5, study and fellow eye GA characteristics, study eye visual acuity, and patient characteristics.\nThis subgroup included patients in the mITT sample with non-missing baseline measurements of RPE central 3 mm occupancy (C3O) in regions 1-5 and lesion distance from fovea center. Mean changes were calculated among patients with BCVA measurements at each timepoint and thus samples varied across outcomes shown with no imputation for missing data. […]"}},
  "data": [
    {"substance": "Poly(oxy-1,2-ethanediyl), α-hydro-ω-hydroxy-, 15,15′-diester with N-acetyl-L-isoleucyl-L-cysteinyl-L-valyl-1-methyl-L-tryptophyl-L-glutaminyl-L-α-aspartyl-L-tryptophylglycyl-L-alanyl-L-histidyl-L-arginyl-L-cysteinyl-L-threonyl-2-[2-(2-aminoethoxy)ethoxy]acetyl-N^6-carboxy-L-lysinamide cyclic (2->12)-(disulfide) [pegcetacoplan]", "values": [
      {"measurement": "HR, occurrence of foveal light insensitivity vs sham", "setting": "[1]; PEOM, 95% CI: 0.45, 0.92, p=0.0164", "value": 0.64},
      {"measurement": "Conversion of all 4 central points to scotoma in the study eye, patients", "setting": "[1]; PEOM, n=152, 24 months", "value": 59, "unit": "patients"},
      {"measurement": "Conversion of all 4 central points to scotoma in the study eye, percent of patients", "setting": "[1]; PEOM, n=152, 24 months", "value": 38.8, "unit": "%"},
      {"measurement": "onset of foveal light insensitivity / loss of foveal light sensitivity", "setting": "[1]; PM and PEOM, twenty-four-month data", "value": "Meaningful delays in loss of foveal light sensitivity"},
      {"measurement": "HR, occurrence of foveal light insensitivity vs sham", "setting": "[1]; PM, 95% CI: 0.46, 0.96, p=0.0282", "value": 0.66},
      {"measurement": "Conversion of all 4 central points to scotoma in the study eye, patients", "setting": "[1]; PM, n=155, 24 months", "value": 54, "unit": "patients"},
      {"measurement": "Conversion of all 4 central points to scotoma in the study eye, percent of patients", "setting": "[1]; PM, n=155, 24 months", "value": 34.8, "unit": "%"},
      {"measurement": "PR loss and RPE loss compared with sham", "setting": "[2]; DERBY and OAKS, monthly and every other month", "value": "statistically significant reduction in PR loss and RPE loss at 12 months"},
      {"measurement": "PR loss, difference every other month vs. Sham pooled", "setting": "[2]; DERBY, every other month, p<0.0001", "value": "−61.0", "unit": "%"},
      {"measurement": "RPE loss, difference every other month vs. Sham pooled", "setting": "[2]; DERBY, every other month, p<0.0065", "value": "−20.4", "unit": "%"},
      {"measurement": "RPE loss, difference EM vs EOM", "setting": "[2]; DERBY, p=0.0103", "value": "−19.6", "unit": "%"},
      {"measurement": "PR loss, difference EM vs EOM", "setting": "[2]; DERBY, p=0.0785", "value": "−42", "unit": "%"},
      {"measurement": "PR loss, difference EM vs. Sham Pooled", "setting": "[2]; DERBY, p<0.0001", "value": "−77.4", "unit": "%"},
      {"measurement": "RPE loss, difference EM vs. Sham Pooled", "setting": "[2]; DERBY, p<0.0001", "value": "−36.0", "unit": "%"},
      {"measurement": "PR Loss, difference EOM vs. Sham pooled", "setting": "[2]; OAKS, every other month, p<0.0001", "value": "−47.7", "unit": "%"},
      {"measurement": "RPE loss, difference every other month vs. Sham pooled", "setting": "[2]; OAKS, every other month, p=0.0342", "value": "−14.8", "unit": "%"},
      {"measurement": "PR loss, difference EM vs EOM", "setting": "[2]; OAKS, p=0.0049", "value": "−51.3", "unit": "%"},
      {"measurement": "RPE loss, difference EM vs EOM", "setting": "[2]; OAKS, p=0.5282", "value": "−5.7", "unit": "%"},
      {"measurement": "PR loss, difference EM vs. Sham Pooled", "setting": "[2]; OAKS, p<0.0001", "value": "−74.5", "unit": "%"},
      {"measurement": "RPE loss, difference EM vs. Sham Pooled", "setting": "[2]; OAKS, p=0.0070", "value": "−19.7", "unit": "%"},
      {"measurement": "quality of life assessed by VFQ-25, better relative to sham", "setting": "[3]", "value": "over 4 points"},
      {"measurement": "BCVA change from baseline, relative to sham", "setting": "[3]; monthly and every other month combined, baseline BCVA 73 (sham 75)", "value": "less of a BCVA change from baseline at 24 months"}
    ]}
  ]
}
